The values below come from patent US9512425B2, “Inhibiting migration of cancer cells” (Cornell University, priority 2012, dated 2016).

Common to all, as to type: cell-based, human
For one data set, the system named is Nnat. The experiment in a line: Nnat expression in MDA-MB-436 cells overexpressing miR-708. Particulars: MDA-MB-436 cells expressing miR-708. On the procedure:
Total RNA was extracted using the RNeasy kit (Qiagen) and converted to cDNA using Superscript II reverse transcriptase (Invitrogen). QPCR primers for Nnat were purchased from SABiosciences (Cat #PPT11378, SABiosciences), and quantitative PCR performed using iQ™ SYBER Green master mix (Biorad, Hercule, Calif.). Each sample was run in triplicate to minimize pipetting error. A standard protocol of initial denaturation at 95° C. for 3 min, 40 cycles of 95° C. for 20 sec, 60° C. for 30 sec, and 72° C. for 30 sec, followed by final extension at 72° C. for 5 min and melt curve analysis was applied on a Biorad CFX96 Real Time System (BioRad) coupled with Bio-Rad-CFX Manager software. The relative abundance of each transcript was compared with the control.

Data set [1] relates to metastatic prostate cancer cells PC3. The data set is described as follows: Migration of PC3 cells with ectopic miR-708. Particulars: ectopic expression of miR-708 in PC3.
In another data set the test system is MDA cells. The experiment in a line: Cell proliferation assay (EdU). Particulars: MDA cells transformed with miR-708 lentiviral expression system. On the procedure:
For cell proliferation assays, 1×10^6 MDA cells were cultured separately in suspension in non-adhesive 6-well dishes (Corning Inc) for 2 days. EdU ([…]) was administrated to culture medium for 30 min to label proliferating cells. Cells were harvested, washed once with PBS, and fixed with 4% paraformaldehyde for 15 min at room temperature. Fixed cells were permeabilized and stained for EdU incorporation and DNA contains with the Click-iT® EdU Cell Proliferation Assay kit (Invitrogen Inc) according to the standard protocol. Flow analyses of cell phases were performed using an LSRII coupled with Diva software (BD Bioscience).

As to “miR-708: microRNA, mature sequence 5'-AAGGAGCUUACAAUCUAGCUGGG-3' (SEQ ID NO: 2); expressed from lentiviral vector or used as synthetic precursor”, the Nnat levels result in the data set with Nnat is reported as “decreased levels of Nnat”. For the same substance, the migration entry in data set [1] is “suppressed migration”. The cell proliferation result in the data set with MDA cells is reported as “No significant change”.
